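Compound exposure: 48 hours, 5 concentrations, 96-well plates. TGI: concentration producing complete growth inhibition.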
How the values were obtained:
Assay in all cases: NCI tumour cell line growth inhibition, 48 h
[1] = test system: SF-295 CNS
[2] = test system: A549 NSCLC
[3] = test system: EKVX NSCLC
[4] = test system: IGROV1 ovarian
[5] = test system: BT-549 breast
[6] = test system: LOX IMVI melanoma
[7] = test system: 786-0 renal
[8] = test system: NCI/ADR-RES ovarian
[9] = test system: NCI-H522 lung
[10] = test system: NCI-H460 lung
[11] = test system: HS 578T breast
[12] = test system: ACHN renal
[13] = test system: TK-10 renal
[14] = test system: SK-OV-3 ovarian
[15] = test system: MALME-3M melanoma
[16] = test system: M14 melanoma
[17] = test system: DU-145 prostate
[18] = test system: OVCAR-8 ovarian
[19] = test system: SR leukemia
[20] = test system: T-47D breast
[21] = test system: NCI-H23 lung
[22] = test system: CAKI-1 renal
[23] = test system: HCT-15 colon
[24] = test system: MDA-MB-231 breast
[25] = test system: U251 CNS
[26] = test system: SF-268 CNS
[27] = test system: CCRF-CEM leukemia
[28] = test system: K-562 leukemia
[29] = test system: OVCAR-4 ovarian
[30] = test system: MDA-MB-435
[31] = test system: SN12C renal
[32] = test system: SNB-19 CNS
[33] = test system: RPMI-8226 leukemia
[34] = test system: COLO 205 colon
[35] = test system: HCC-2998 colon
[36] = test system: A498 renal
[37] = test system: UACC-62 melanoma
[38] = test system: HOP-92 NSCLC
[39] = test system: NCI-H226 lung
[40] = test system: HT29 colon
[41] = test system: HOP-62 NSCLC
[42] = test system: SW-620 colon
[43] = test system: OVCAR-5 ovarian
[44] = test system: KM12 colon
[45] = test system: OVCAR-3 ovarian
[46] = test system: SNB-75 CNS
[47] = test system: SK-MEL-28 melanoma
[48] = test system: MOLT-4 leukemia
[49] = test system: UACC-257 melanoma
[50] = test system: RXF 393 renal
[51] = test system: HL-60(TB) leukemia
[52] = test system: HCT-116 colon
[53] = test system: MCF7 breast
[54] = test system: PC-3 prostate
[55] = test system: SF-539 CNS
[56] = test system: MDA-N
[57] = test system: SK-MEL-5 melanoma
[58] = test system: UO-31 renal
[59] = test system: SK-MEL-2 melanoma

## Cc1cc(S(=O)(=O)Nc2nc3ncccc3[nH]2)c(S)cc1Cl
[1]
  TGI: > 100 µM
[2]
  TGI: > 100 µM
[3]
  TGI: > 100 µM
[4]
  TGI: > 100 µM
[5]
  TGI: > 100 µM
[6]
  TGI: > 100 µM
[7]
  TGI: > 100 µM
[8]
  TGI: > 100 µM
[9]
  TGI: > 100 µM
[10]
  TGI: > 100 µM
[11]
  TGI: > 100 µM
[12]
  TGI: > 100 µM
[13]
  TGI: > 100 µM
[14]
  TGI: > 100 µM
[15]
  TGI: > 100 µM
[16]
  TGI: > 100 µM
[17]
  TGI: > 100 µM
[18]
  TGI: > 100 µM
[19]
  TGI: > 100 µM
[20]
  TGI: > 100 µM
[21]
  TGI: > 100 µM
[22]
  TGI: > 100 µM
[23]
  TGI: > 100 µM
[24]
  TGI: > 100 µM
[25]
  TGI: > 100 µM
[26]
  TGI: > 100 µM
[27]
  TGI: > 100 µM
[28]
  TGI: > 100 µM
[29]
  TGI: > 100 µM
[30]
  TGI: > 100 µM
[31]
  TGI: > 100 µM
[32]
  TGI: > 100 µM
[33]
  TGI: > 100 µM
[34]
  TGI: > 100 µM
[35]
  TGI: > 100 µM
[36]
  TGI: > 100 µM
[37]
  TGI: > 100 µM
[38]
  TGI: > 100 µM
[39]
  TGI: > 100 µM
[40]
  TGI: > 100 µM
[41]
  TGI: > 100 µM
[42]
  TGI: > 100 µM
[43]
  TGI: > 100 µM
[44]
  TGI: > 100 µM
[45]
  TGI: > 100 µM
[46]
  TGI: > 100 µM
[47]
  TGI: > 100 µM
[48]
  TGI: > 100 µM
[49]
  TGI: > 100 µM
[50]
  TGI: > 100 µM
[51]
  TGI: > 100 µM
[52]
  TGI: > 100 µM
[53]
  TGI: > 100 µM
[54]
  TGI: > 100 µM
[55]
  TGI: > 100 µM
[56]
  TGI: > 100 µM
[57]
  TGI: > 100 µM

## O=[N+]([O-])c1ccc(NN=C2CN3CCN(C2)c2ccccc23)c([N+](=O)[O-])c1
[1]
  TGI: > 100 µM
[2]
  TGI: > 100 µM
[3]
  TGI: > 100 µM
[4]
  TGI: > 100 µM
[5]
  TGI: > 100 µM
[6]
  TGI: > 100 µM
[7]
  TGI: > 100 µM
[8]
  TGI: > 100 µM
[9]
  TGI: > 100 µM
[10]
  TGI: > 100 µM
[11]
  TGI: > 100 µM
[12]
  TGI: > 100 µM
[13]
  TGI: > 100 µM
[14]
  TGI: > 100 µM
[15]
  TGI: > 100 µM
[16]
  TGI: > 100 µM
[17]
  TGI: > 100 µM
[18]
  TGI: > 100 µM
[19]
  TGI: > 100 µM
[20]
  TGI: > 100 µM
[21]
  TGI: > 100 µM
[22]
  TGI: > 100 µM
[23]
  TGI: > 100 µM
[24]
  TGI: > 100 µM
[25]
  TGI: > 100 µM
[26]
  TGI: > 100 µM
[58]
  TGI: > 100 µM
[27]
  TGI: > 100 µM
[28]
  TGI: > 100 µM
[29]
  TGI: > 100 µM
[30]
  TGI: > 100 µM
[31]
  TGI: > 100 µM
[32]
  TGI: > 100 µM
[34]
  TGI: > 100 µM
[35]
  TGI: > 100 µM
[36]
  TGI: > 100 µM
[37]
  TGI: > 100 µM
[38]
  TGI: > 100 µM
[40]
  TGI: > 100 µM
[41]
  TGI: > 100 µM
[42]
  TGI: > 100 µM
[43]
  TGI: > 100 µM
[44]
  TGI: > 100 µM
[45]
  TGI: > 100 µM
[47]
  TGI: > 100 µM
[48]
  TGI: > 100 µM
[49]
  TGI: > 100 µM
[52]
  TGI: > 100 µM
[53]
  TGI: > 100 µM
[54]
  TGI: > 100 µM
[55]
  TGI: > 100 µM
[56]
  TGI: > 100 µM
[57]
  TGI: > 100 µM

## C[C@@H]1[C@@H](C)C(c2ccccc2)O[Si]1(C(C)(C)C)C(C)(C)C (stereo not given in full)
[1]
  TGI: 30.2 µM
[2]
  TGI: 30.3 µM
[3]
  TGI: 33.4 µM
[4]
  TGI: 31 µM
[5]
  TGI: 57.1 µM
[6]
  TGI: 30.9 µM
[7]
  TGI: 29.4 µM
[8]
  TGI: 33 µM
[9]
  TGI: 28.7 µM
[10]
  TGI: 32.2 µM
[11]
  TGI: 42.6 µM
[12]
  TGI: 31.5 µM
[13]
  TGI: 29.9 µM
[14]
  TGI: > 69.3 µM
[15]
  TGI: 37 µM
[16]
  TGI: 42.2 µM
[17]
  TGI: 31.6 µM
[18]
  TGI: 33.8 µM
[19]
  TGI: 29.3 µM
[20]
  TGI: 37.2 µM
[21]
  TGI: 30.3 µM
[22]
  TGI: 33 µM
[23]
  TGI: > 55.3 µM
[24]
  TGI: 31.3 µM
[25]
  TGI: 30.7 µM
[26]
  TGI: 61.2 µM
[58]
  TGI: 31 µM
[27]
  TGI: 46.2 µM
[28]
  TGI: 63.6 µM
[29]
  TGI: > 86.1 µM
[30]
  TGI: 76.3 µM
[31]
  TGI: 31.3 µM
[32]
  TGI: 18.3 µM
[33]
  TGI: 50.3 µM
[34]
  TGI: 30.3 µM
[35]
  TGI: > 55.8 µM
[36]
  TGI: 33.9 µM
[37]
  TGI: 46.3 µM
[38]
  TGI: 38.8 µM
[59]
  TGI: 29.3 µM
[39]
  TGI: 40.9 µM
[40]
  TGI: 31 µM
[41]
  TGI: 31.4 µM
[42]
  TGI: 34.9 µM
[43]
  TGI: 31.4 µM
[44]
  TGI: 30.6 µM
[45]
  TGI: 30.1 µM
[46]
  TGI: 29.9 µM
[47]
  TGI: > 66.7 µM
[48]
  TGI: 33.9 µM
[49]
  TGI: 37.5 µM
[50]
  TGI: 31 µM
[52]
  TGI: 28.8 µM
[53]
  TGI: 31.9 µM
[54]
  TGI: 33.1 µM
[55]
  TGI: 30.7 µM
[56]
  TGI: 48.4 µM
[57]
  TGI: 31.5 µM

## OC1(c2ccccc2)C2CC=CC2C1(c1ccccc1)c1ccccc1 (stereo not given)
[1]
  TGI: > 100 µM
[2]
  TGI: > 100 µM
[3]
  TGI: 76.4 µM
[4]
  TGI: 48.9 µM
[5]
  TGI: > 100 µM
[6]
  TGI: 37.9 µM
[7]
  TGI: > 100 µM
[8]
  TGI: > 100 µM
[9]
  TGI: 32.7 µM
[10]
  TGI: > 100 µM
[11]
  TGI: > 100 µM
[12]
  TGI: > 100 µM
[13]
  TGI: > 100 µM
[14]
  TGI: > 100 µM
[15]
  TGI: 53 µM
[16]
  TGI: > 100 µM
[17]
  TGI: > 100 µM
[18]
  TGI: > 100 µM
[19]
  TGI: > 100 µM
[20]
  TGI: > 100 µM
[21]
  TGI: > 100 µM
[22]
  TGI: 60.1 µM
[23]
  TGI: > 100 µM
[24]
  TGI: > 100 µM
[25]
  TGI: > 100 µM
[26]
  TGI: > 100 µM
[58]
  TGI: > 100 µM
[27]
  TGI: > 100 µM
[28]
  TGI: > 100 µM
[30]
  TGI: 62.1 µM
[31]
  TGI: > 100 µM
[32]
  TGI: > 100 µM
[33]
  TGI: 86.5 µM
[34]
  TGI: 44.6 µM
[35]
  TGI: 48.3 µM
[36]
  TGI: 57 µM
[37]
  TGI: > 100 µM
[38]
  TGI: > 100 µM
[59]
  TGI: 27.5 µM
[40]
  TGI: 69.8 µM
[41]
  TGI: > 100 µM
[42]
  TGI: > 100 µM
[43]
  TGI: > 100 µM
[44]
  TGI: > 100 µM
[45]
  TGI: > 100 µM
[46]
  TGI: > 100 µM
[47]
  TGI: > 100 µM
[48]
  TGI: > 100 µM
[49]
  TGI: 81.4 µM
[50]
  TGI: 46.3 µM
[51]
  TGI: 95.7 µM
[52]
  TGI: > 100 µM
[53]
  TGI: 79.4 µM
[54]
  TGI: > 100 µM
[55]
  TGI: > 100 µM
[56]
  TGI: > 100 µM
[57]
  TGI: 36.2 µM
